# Measurements as given in patent US11072592B2, “Small molecules that enable cartilage rejuvenation” (The Regents of the University of California, priority 2015, dated 2021).
# Entries after “also recorded” stand apart in the source; their conditions may differ.
# What was measured:
# Format in all cases: cell-based
# [1] = test system: adult human articular chondrocytes; assay: Transwell migration assay, adult human articular chondrocytes
# Description: Cells were plated on Millicell 8 μm Transwell® inserts (Millipore, Billerica, Mass.) in 12-well plates (Fisher Scientific, Pittsburgh, Pa.) and stimulated with 10 μM of RCGD 423, 10 μM MYC inhibitor (10058-F4) or 10 μM STAT3 inhibitor (STATTIC) from Tocris Bioscience (Bristol, UK). Cells that migrated across the membranes were quantified by counting after 48 hours of treatment.
# [2] = test system: adult pig articular cartilage explants; assay: Proliferation (EdU) and marker expression in adult articular cartilage explants
# Description: FIGS. 26A-26J. LIF/STAT3/MYC signaling is prominent in fetal articular chondrocytes and can activate a fetal-like phenotype in adult cells. (FIG. 26A) Levels of phospho-STAT3 (pSTAT3) and MYC protein were quantitated in human fetal and adult articular chondrocytes relative to histone H3. (FIG. 26B) Effects of soluble LIF receptor (sLIFR) on MYC and pSTAT3 protein levels on fetal articular chondrocytes after 72 hours. (FIG. 26C) Detection of apoptotic cells using TUNEL staining and flow cytometry analysis of fetal articular cartilage explants cultured in the absence (control) or presence of a MYC (10058-F4) or STAT3 (STATTIC) inhibitor for 24 hours. (FIG. 26D) Quantification of proliferating cells via EdU incorporation in fetal articular cartilage explants and also by flow cytometry analysis for BrdU. Scale bars represent 100 μm. (FIG. 26E) Assessment of metabolic activity of human fetal articular chondrocytes cultured in the presence or absence of MYC or STAT3 inhibitors. (FIG. 26F) Migration capacity of fetal articular chondrocytes was assessed using a Transwell® assay in the absence or presence of MYC and STAT3 inhibitors. (FIG. 26G) Protein levels of MYC and pSTAT3 were measured in adult human articular chondrocytes with and without incubation with LIF. Data are shown normalized to histone H3. (FIG. 26H) Migratory capacity of adult human articular chondrocytes in a Transwell® assay measured in the presence or absence of LIF. (FIG. 26I) Single adult human articular chondrocytes were cultured with or without LIF for 5 weeks to allow detection of colony-forming cells. […]
# FIGS. 28A-28I. […] (FIG. 28A) Adult human articular chondrocytes were incubated with or without RCGD 423 and levels of MYC and pSTAT3 were quantified relative to histone H3. (FIG. 28B) Levels of MYC and pSTAT3 protein were measured in pig adult articular chondrocytes to determine the effects of RCGD 423 in a dose- and time-dependent manner; histone H3 was used as a loading control. (FIG. 28C) Migration of adult human articular chondrocytes in a Transwell® assay was assessed in the presence and absence of RCGD 423. […]
# [3] = test system: adult human articular chondrocytes; assay: Survival / apoptosis (Annexin V) of adult articular chondrocytes; conditions: for chondrocytes survival in adult explants: LIF 50 ng/mL, CRM-423 10 uM
# Description: FIGS. 28A-28I. Small molecule-mediated activation of a fetal-like molecular and functional phenotype in adult articular cartilage. (FIG. 28A) Adult human articular chondrocytes were incubated with or without RCGD 423 and levels of MYC and pSTAT3 were quantified relative to histone H3. (FIG. 28B) Levels of MYC and pSTAT3 protein were measured in pig adult articular chondrocytes to determine the effects of RCGD 423 in a dose- and time-dependent manner; histone H3 was used as a loading control. (FIG. 28C) Migration of adult human articular chondrocytes in a Transwell® assay was assessed in the presence and absence of RCGD 423. (FIG. 28D) Adult human articular chondrocytes were incubated with or without RCGD 423 in hydrogel for 24 hours and then apoptotic cells were quantitated via flow cytometry for Annexin V. (FIG. 28E) Single human adult articular chondrocytes were cultured for 5 weeks with or without stimulation with RCGD 423. (FIG. 28F) Proliferation in explants of adult pig articular cartilage in the absence or presence of RCGD 423 as shown by EdU incorporation. Explants of adult pig articular cartilage were incubated with EdU in the presence or absence of LIF to detect proliferating cells. Scale bars represent 25 μm. (FIG. 28G) Metabolic activity of human adult articular chondrocytes (ECAR and OCR) was assessed in the presence or absence of RCGD 423; the response in these parameters to stimulation with LIF is shown for comparison. […]
# Only early passages of chondrocytes (passage 0-2) were used for experimentation to avoid de-differentiation and loss of cartilage phenotype (Wu et al., 2014). Cartilage explants were made using 1, 2 or 8 mm biopsy punch and wet weight of each explant determined prior to experimentation. […]
# TdT-mediated dUTP nick-end labeling (TUNEL) or EdU assays were performed by using in situ cell death detection kit (TUNEL, Roche Diagnostics GmbH, Germany) or Click-iT® Assay Kit obtained from Invitrogen (Carlsbad, Calif.), respectively, as described in the manufacturer's protocol. […] After staining sections were analyzed using fluorescent microscopy. […]
Compound,migration / migratory potential [1],proliferation of chondrocytes in adult cartilage explants (EdU) [2],"expression of the stem/progenitor cell marker ALDH 1A1 in the surface layer ([2]; adult pig cartilage explants, LIF 50 ng/mL for 3 days)",chondrocytes survival in adult explants [3],"apoptosis (Annexin V) ([3]; adult human articular chondrocytes in hydrogel, 24 hours)"
LIF: interleukin 6 (IL-6)-class cytokine,increased,stimulated proliferation; also recorded: significantly increased,increased expression,increase; also recorded: promoted survival,
"Brc1ccc(Nc2nc(-c3ccccc3)cs2)cc1 [RCGD 423, N-(4-Bromophenyl)-4-phenyl-1,3-thiazol-2-amine]",increased,increased,,increase,decreased
